Source: US7414031B2, “5-nitro-nucleoside compounds for treating viral infections” (priority 2004, dated 2008)

Legend:
[1] = system: HCV replicon I389luc-ubi-neo/NS3-3′/ET in ET (Huh-lucubineo-ET) cell line; assay: Replicon Assay; assay type: cell-based; details: Hepatitis C virus, read-out: Replicon Assay
Description: A cell line, ET (Huh-lucubineo-ET) is used for screening of compounds of the present invention for HCV RNA dependent RNA polymerase. The ET cell line is stably transfected with RNA transcripts harboring a I389luc-ubi-neo/NS3-3′/ET; replicon with firefly luciferase-ubiquitin-neomycin phosphotransferase fusion protein and EMCV-IRES driven NS3-5B polyprotein containing the cell culture adaptive mutations (E1202G; T1280I; K1846T) (Krieger at al, 2001 and unpublished). The ET cells are grown in DMEM, supplemented with 10% fetal calf serum, 2 mM Glutamine, Penicillin (100 IU/mL)/Streptomycin (100 μg/mL), 1× nonessential amino acids, and 250 μg/mL G418 (“Geneticin”). They are all available through Life Technologies (Bethesda, Md.). The cells are plated at 0.5-1.0×10^4 cells/well in the 96 well plates and incubated for 24 hrs before adding nucleoside analogs. […] Luciferase activity will be measured 48-72 hours later by adding a lysis buffer and the substrate (Catalog number Glo-lysis buffer E2661 and Bright-Glo leuciferase system E2620 Promega, Madison, Wis.). […] Under the same condition, cytotoxicity of the compounds will be determined using cell proliferation reagent, WST-1 (Roche, Germany). […] IC50 and TC50 values were calculated by fitting % inhibition at each concentration to the following equation: % inhibition=100%/[(IC50/[I])^b+1] where b is Hill's coefficient.

[2] = patients treated at currently recommended doses; cited from earlier work
[3] = system: HCV; details: treatment of HCV with interferon; cited from earlier work
[4] = target: T1, recombinant HCV-NS5b (Hepatitis C virus genotype 1b, UniProt Q9WMX2); assay: HCV-NS5b Enzyme Assay; assay type: biochemical
T1 construct: (His)6 (C); made in house; host or cells: XL-1 cells (E. coli)
Description: The coding sequence of NS5b protein is cloned by PCR from pFKI389luc/NS3-3′/ET as described by Lohmann, V., et al. (1999) Science 285, 110-113 using the following primers: […] (SEQ. ID. NO. 1) […] (SEQ. ID. NO. 2)
The cloned fragment is missing the C terminus 21 amino acid residues. The cloned fragment is inserted into an IPTG-inducible expression plasmid that provides an epitope tag (His)6 at the carboxy terminus of the protein.
The recombinant enzyme is expressed in XL-1 cells and after induction of expression, the protein is purified using affinity chromatography on a nickel-NTA column. Storage condition is 10 mM Tris-HCl pH 7.5, 50 mM NaCl, 0.1 mM EDTA, 1 mM DTT, 20% glycerol at −20° C.
The polymerase activity is assayed by measuring incorporation of radiolabeled UTP into a RNA product using a biotinylated, heteropolymeric template, which includes a portion of the HCV genome. Typically, the assay mixture (50 μL) contains 10 mM Tris-HCl (pH 7.5), 5 mM MgCl2, 0.2 mM EDTA, 10 mM KCl, 1 unit/μL RNAsin, 1 mM DTT, 10 μM each of NTP, including [^3H]-UTP, and 10 ng/μL heteropolymeric template. Test compounds are initially dissolved in 100% DMSO and further diluted in aqueous buffer containing 5% DMSO. Typically, compounds are tested at concentrations between 1 nM and 100 μM. […] Incorporation of radioactivity is determined by scintillation counting.

`C[C@@]1(O)[C@H](O)[C@@H](CO)O[C@H]1n1cc(C(=O)O)c2c(N)ncnc21` [Comparative Example A, 7-(2′-methyl-β-D-ribofuranosyl)-4-amino-5-carboxy-pyrrolo[2,3-d]pyrimidine, reference compound] gave an IC50 [1] greater than 50000 nM.

For `NC(=O)c1ncn([C@@H]2O[C@H](CO)[C@@H](O)[C@H]2O)n1` [Ribavirin, 1-β-D-ribofuranosyl-1H-1,2,-4-triazole-3-carboxamide], the “patients with significant hemolysis” value [2] is given as 10-20%.

In the case of interferon, the “response rate (long term efficacy)” value [3] is given as “about 25%”.

Work on `C[C@@]1(O)[C@H](O)[C@@H](CO)O[C@H]1n1cc([N+](=O)[O-])c2c(N)ncnc21` [Compound 101, 7-(2′-C-methyl-β-D-ribofuranosyl)-4-amino-5-nitro-pyrrolo[2,3-d]pyrimidine] yielded an IC50 [1] of 60 nM.

Work on `C[C@@]1(O)[C@H](O)[C@@H](COP(=O)(O)OP(=O)(O)OP(=O)(O)O)O[C@H]1n1cc([N+](=O)[O-])c2c(N)ncnc21` [Compound 104, 7-(2′-C-methyl-5′-triphospho-β-D-ribofuranosyl)-4-amino-5-nitro-pyrrolo[2,3-d]pyrimidine] yielded an IC50 [4] of 2600 nM.
